Results from US9326927B2, “Use of cannabinoid compounds for stimulating melanogenesis” (L'OREAL, priority 2011, dated 2016).

Tests used:
[1] = test system: Normal human epidermal melanocytes (NHEMs); assay: Determination of the melanin content of the melanocytes (Example 1); type: cell-based; set-up: key to amount of melanin in NHEM cells, mean: fold of untreated control melanin amount (control = 1); details: for effect on amount of melanin in the melanocytes (NHEMs), in words: 1 μM, by means of the CB1 receptor; for effect of receptor antagonist on the propigmenting effect of mAEA, in words: antagonist in combination with mAEA 1 μM (SR1 0.1 μM)
Description: Normal human epidermal melanocytes (NHEMs) isolated from foreskins and supplied by Promocell (Heidelberg, Germany) are cultured for 24 h at 37° C. in a humid atmosphere at 5% CO2 in an appropriate culture medium M2 (Promocell).
The AEA and the other compounds are added directly to the culture medium. Twenty-four hours after each treatment, the cell viability was measured using Trypan blue exclusion dye (Maccarone et al., 2003).
The mAEA, the AEA and the ACEA are tested in vitro at a concentration of 1 μM and compared. The mAEA is also used at this concentration when it is used in combination with SR1 at 0.1 μM.
Moreover, the mAEA was also tested, alone, at concentrations of 0.5, 1.0, 1.5, 2.0, 2.5 and 3.0 μM.
The amount of melanin present in the NHEM cells is measured according to a method known to those skilled in the art (Xiao et al., Arch Dermatol Res 2007; 299: 245-57). According to this method, the NHEM cells are treated with trypsin and washed twice with a phosphate buffered saline. The samples are then resuspended in 200 μl of MilliQ water, and 1 ml of an ethanol: ether mixture (1:1, vol/vol) is added in order to remove the opaque substances other than melanin. After 15 minutes, the samples are centrifuged at 600 g for 5 minutes. The pellet is air-dried and dissolved in 200 μl of 1 N sodium hydroxide. The samples are then heated at 80° C. for one hour and cooled.
The amount of melanin is determined by spectrophotometry at 450 nm using the standard melanin controls supplied by Sigma Chemical Co., so as to verify the linearity range of the test. The amount of melanin is expressed relative to the control.
The results given are the means, with their standard deviations, of 3 independent tests, each carried out in triplicate. They were compared by analysis of variance (ANOVA).

[2] = test system: pigmented reconstructed epidermises (normal human melanocytes and keratinocytes); assay: Propigmenting effect on pigmented reconstructed epidermises (PREs), melanin quantified by image analysis (Example 3); type: cell-based
Description: Pigmented epidermises are reconstructed on a collagen support (BPER [biodressing for reconstructed epidermis]) using normal human melanocytes and keratinocytes.
The epidermises are obtained after 8 days of reconstruction; the melanocytes chosen are of estimated phototype IV.1.
Some epidermises are treated daily with the placebo, others with the test product mAEA at different concentrations (1 μM and 3 μM).
Each experimental condition is performed in quadruplicate.
The histological quality of the epidermises after treatment is evaluated on histological sections after HES staining in order to determine the impact of the treatment on the epidermises. Also, the physiology of the melanocytes is studied in order to detect any melano-cytotoxicity. If no histological modification nor any melanotoxic effect of the product evaluated is noted, the pigmentation is quantified by quantifying the melanin on histological sections by image analysis.
(§1) Quantification of the pigmentation by microscopic quantification of the melanin is then carried out and makes it possible to illustrate a propigmenting activity of the test compound.
The melanin present in the epidermis is stained on histological sections (Fontana Masson staining) and then quantified by image analysis. For this, each epidermis is photographed over its entire width using a microscope. Approximately 10 images are acquired per epidermis (white light, ×20 magnification).
The area taken up by melanin is quantified using custom-designed image analysis software. Briefly, each image is segmented into 4 zones according to their color (lumen, stratum corneum, live epidermis and BPER). […] The pixels occupied by the melanin in the whole epidermis or the live layers are then quantified.
This quantification takes into account the area taken up by the melanin and also the average localization of the melanin in the epidermis.
The results below are expressed as percentage relative stimulation with respect to the control cultured in standard coculture medium.

NHEKs+NHEMs coculture = assay: Melanin production in NHEM-NHEK coculture (Example 4); type: cell-based, human; details: 72 h
Description: (§2) Primary human melanocytes (NHEMs) were seeded into 24-well plates in the presence (coculture) of normal human epidermal keratinocytes (NHEKs) and then cultured for 24 h. The cells were then treated with nothing (negative control), IBMX (positive control, 200 μM), or methanandamide (mAEA, 1 μM).
(§3) After treatment, the cells were incubated for 72 h, all the experimental conditions having been carried out in triplicate.
(§4) After 72 h of incubation, the cells were lysed with a 0.5 N NaOH solution in order to extract the melanin.
as §1
(§5) The optical density of the samples was measured at 405 nm, with reference to an exogenous melanin range (standard melanin curve 0.39 to 100 μg/ml).

[3] = test system: Primary human melanocytes (NHEMs); assay: Melanin production in NHEMs (Example 4); type: cell-based; details: 1 μM, 72 h
Description: as §2, §3, §4, §1, §5

[4] = expressed relative to the control, compound alone at 1 μM, mean of 3 independent tests

Compound: CCCCC/C=C\C/C=C\C/C=C\C/C=C\CCCC(=O)NCCCl [ACEA, Arachidonyl-2′-chloroethylamide]
- effect on amount of melanin in the melanocytes (NHEMs), in words [1]: significantly increase the amount of melanin
- amount of melanin in NHEM cells, mean [1, 4]: 2.14

Compound: CCCCC/C=C\C/C=C\C/C=C\C/C=C\CCCC(=O)NCCO [Anandamide, N-arachidonoylethanolamine]
- effect on amount of melanin in the melanocytes (NHEMs), in words [1]: significantly increase the amount of melanin
- amount of melanin in NHEM cells, mean [1, 4]: 2.09

Compound: Cc1c(C(=O)NN2CCCCC2)nn(-c2ccc(Cl)cc2Cl)c1-c1ccc(Cl)cc1 [SR1, N-piperidino-5-(4-chlorophenyl)-1-(2,4-dichlorophenyl)-4-methyl-3-pyrazole carboxamide, reference compound]
- effect of receptor antagonist on the propigmenting effect of mAEA, in words [1]: prevents mAEA from having its propigmenting effect

Compound: CCCCC/C=C\C/C=C\C/C=C\C/C=C\CCCC(=O)NC(C)CO (stereo not drawn) [mAEA, R(+)-arachidonyl-1′-hydroxy-2′-propylamide]
- melanin, percentage relative stimulation with respect to the control ([2]; 1 μM SYST D17): 315%
- melanin production in pigmented reconstructed epidermises, in words ([2]; 1 μM and 3 μM, daily treatment): very large increase in melanin production
- melanin, percentage relative stimulation with respect to the control ([2]; second line, printed 1 μM SYST D17): 356.25%
- effect on amount of melanin in the melanocytes (NHEMs), in words [1]: significantly increase the amount of melanin
- dose/effect relationship of melanin production in NHEM cells, in words ([1]; 0.5 to 3.0 μM): dose-dependent increase in melanin production
- amount of melanin in NHEM cells, mean [1, 4]: 2.80
- amount of melanin in NHEM cells, mean ([1]; relative to the control, mAEA 1 μM in combination with SR1 0.1 μM): 1.22
- amount of melanin in NHEM cells, mean ([1]; relative to the control, mAEA alone 0.5 μM): 1.75
- amount of melanin in NHEM cells, mean ([1]; relative to the control, mAEA alone 1.5 μM): 3.30
- amount of melanin in NHEM cells, mean ([1]; relative to the control, mAEA alone 2 μM): 3.34
- amount of melanin in NHEM cells, mean ([1]; relative to the control, mAEA alone 2.5 μM): 3.75
- amount of melanin in NHEM cells, mean ([1]; relative to the control, mAEA alone 3 μM): 4.13
- amount of melanin in NHEM cells, mean ([1]; relative to the control, mAEA in combination with SR2): 2.34
- melanin production in NHEK+NHEM cells, in words (NHEKs+NHEMs coculture; 1 μM): increase in melanin production
- melanin production in NHEKs+NHEMs compared with NHEMs alone and IBMX positive control, in words (NHEKs+NHEMs coculture; mAEA 1 μM vs IBMX 200 μM): greater than in NHEMs alone, even exceeding that of the IBMX positive control
- melanin production in NHEM cells, in words [3]: increase in melanin production

Compound: N-[(1S)-endo-1,3,3-trimethy-1-bicyclo[2.2.1]heptan-2-yl]-5-(4-choro-3-methylphenyl)-1-(4-methylbenzyl)pyrazole-3-carboxamide [SR2, reference compound]
- effect of receptor antagonist on the propigmenting effect of mAEA, in words [1]: does not, on the other hand, prevent mAEA from having this effect
